Laboratory results taken from publication PMC5529524, “2-Oxoadenosine induces cytotoxicity through intracellular accumulation of 2-oxo-ATP and depletion of ATP but not via the p38 MAPK pathway” (Scientific Reports, 2017).
pIC50: −log10 of the molar value.

Key:
Assay type in all cases: biochemical
[1] = target: T1, adenosine kinase (recombinant human ADK, rhADK) (Homo sapiens, UniProt P55263); assay: in vitro rhADK phosphorylation assay, HPLC of monophosphate product
[2] = target: T1, adenosine kinase (recombinant human ADK, rhADK); assay: in vitro rhADK phosphorylation assay, HPLC of 2-oxo-AMP
[3] = target: T1, adenosine kinase (recombinant human ADK, rhADK); assay: in vitro rhADK enzyme assay, HPLC of 2-oxo-AMP product (IC50 […] with Ado as substrate)

T1 sequence (P55263 2-362): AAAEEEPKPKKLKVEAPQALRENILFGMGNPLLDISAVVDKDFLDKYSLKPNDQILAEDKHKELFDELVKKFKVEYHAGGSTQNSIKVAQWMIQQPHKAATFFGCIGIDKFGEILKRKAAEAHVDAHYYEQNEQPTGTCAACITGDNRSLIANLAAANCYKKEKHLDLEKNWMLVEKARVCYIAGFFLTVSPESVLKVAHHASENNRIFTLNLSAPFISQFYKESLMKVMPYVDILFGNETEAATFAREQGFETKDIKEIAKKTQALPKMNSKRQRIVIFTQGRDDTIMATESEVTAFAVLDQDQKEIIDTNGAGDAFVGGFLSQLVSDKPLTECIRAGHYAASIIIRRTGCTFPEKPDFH

## Nc1nc(Cl)nc2c1ncn2[C@@H]1O[C@H](CO)[C@@H](O)[C@H]1O [2-chloroadenosine]
[1]
  in vitro rhADK phosphorylation assay, HPLC of monophosphate product: Chromatograms of the reaction products of ADK with 2-Cl-Ado or AICAR showed novel peaks

## Nc1[nH]c(=O)nc2c1ncn2[C@@H]1O[C@H](CO)[C@@H](O)[C@H]1O [2-oxoadenosine, 1,2-Dihydro-2-oxoadenosine]
[2]
  in vitro rhADK phosphorylation assay, HPLC of 2-oxo-AMP: Recombinant human ADK, ATP and nucleosides 2-oxo-Ado (a) or Ado (b) were reacted

## C[S+]([O-])c1ccc(-c2nc(-c3ccncc3)c(-c3ccc(F)cc3)[nH]2)cc1 (stereo not drawn) [SB203580]
[3]
  pIC50: 5.07
